Patent EP0986299B1, “PLANT TRANSFORMATION METHODS” (Syngenta Participations AG, priority 1997, dated 1998)
Where two headings read alike, the source gives them in different places.

Assays:
cell line HE/89 = assay: DNA fragmentation (DNA ladders) after Agrobacterium exposure, sensitivity to added agents; assay type: cell-based; details: maize cells exposed to Agrobacterium, agent added
Procedure: In order to determine the mechanism of cell death induced by Agrobacterium in maize tissues, genomic DNA is extracted from plant suspension cells harvested 24 or 48 hours after inoculation with Agrobacterium. Exposure to Agrobacterium causes DNA fragmentation in both maize lines, with a pattern characteristic of internucleosomal fragmentation, which is considered an early hallmark of programmed cell death. […] Furthermore, maize cells undergoing programmed cell death could not induce cell death of fresh maize embryogenic tissues.
Further evidence for Agrobacterium inducing DNA fragmentation is obtained by investigating the sensitivity of the process to Zn^2+ and Ca^2+. […] These characteristics are fully consistent with the effect of these divalent cations on the endogenous endonucleases responsible for DNA cleavage during apoptosis in animal system. The intensity of the ladder also is decreased by addition of cycloheximide, evidence that the process requires de novo gene expression. […] Fragmentation of DNA during apoptosis is also detected in situ by reagents that react with the exposed hydroxyls on the nucleosome units. 12 day old maize embryos from a proprietary elite line of Lancaster parentage are inoculated with LBA4404 and plated on DG4 medium supplemented with chloramben. Koziel, M.G., & al. 1993. Bio/Technology 11: 194-200. Apoptotic cells are detected by in situ staining with TACS-1 kit (Trevigen), which involves end labeling the DNA fragments by the klenow enzyme using dNTP conjugated to a detectable marker, giving a dark insoluble precipitate indicative of genomic fragmentation. Cullivier, O., Pirianov, G., Kleuser, B., Vanek, P.G., Coso, O.A., Gutking, J.S. and Spiegel, S. (1996) Nature 381, 800-803. Embryos are soaked in 3.7% formadehyde solution and processed as described by the manufacturer. To detect genomic DNA cleavage in situ, fixed embryos are treated with the TACS-1 kit. Fixed cross-sections are first treated with proteinase K for 5 min at room temperature and then dipped for 5 min into 2% hydrogen peroxide to remove endogenous peroxidase. […]

maize embryos = details: for Score (Callus initiation): transfer 2DG4 + AgNO3 +Cef, two weeks
Procedure: Immature embryos (1.2 to 2.2 mm in length) are aseptically excised 14-15 days after pollination from surface-sterilized, greenhouse-grown ears and plated scutellum up on callus initiation medium, 2DG4 + 5 mg/l chloramben (2DG4-5Chl). 2DG4 medium is Duncan's medium modified to contain […] sucrose.
Embryos with callus response: • Immature embryos are sterilized as described above and plated on callus initiation medium (2DG4-5Chl) and cultured therein for 1 to 7 days. The resulting tissue is used as samples for inoculation.
(§1) Strain A. tumefaciens LBA4404 (pAL4404, pSB1) is used in these experiments. pAL4404 is a disarmed helper plasmid. pSB1 is a wide host range plasmid that contains a region of homology to pGIGUP and a 15.2 kb Kpnl fragment from the virulence region of pTiBo542 (Ishida et al., 1996; High efficiency transformation of maize (Zea mays L.) mediated by Agrobacterium tumefaciens, Nature Biotechnology 14, 745-750). The introduction of the plasmid pGlGUP by electroporation into LBA4404(pAL4404, pSB1) results in a cointegration of pGlGUP and pSB1. The T-DNA of this plasmid contains a plant expressible PAT gene driven by the ubiquitin promoter to provide resistance to phosphinothricin and a gene for GUS with an intron in the N-terminal codon of the coding sequence driven by the Gelvin promoter. This intron-GUS gene expresses GUS activity in the plant cell but not in Agrobacterium.
(§2) Agrobacterium is grown for 3 days on YP medium (5g/l yeast extract, 10g/l peptone, 5g/l NaCl, 15 g/l agar, pH 6.8) supplemented with 50 mg/l spectinomycin and 10 mg/l tetracycline. Bacteria are collected with a loop and suspended in N6 liquid medium at a density ranging from 10^9 to 5 10^9cells/ml. Agrobacterium cells can also be collected from an overnight culture in YP medium and resuspended in N6 liquid medium.
(§3) Maize tissues prepared as described above are inoculated with Agrobacterium. Maize tissues are soaked in the bacterial suspension for 5-10 min and then plated on medium with or without silver nitrate (1 to 10 mg/l). Tissues are also inoculated with a 5 µl drop 10^9 to 5x10^9cells/ml of an Agrobacterium suspension placed on the top of the tissue. After inoculation, maize tissues are cultured in the dark at 25°C with or without silver nitrate in the medium (1 to 10 mg/l). 2 or 3 days after inoculation, tissues are transferred on the same medium supplemented with cefotaxime (250 mg/l) with or without silver nitrate.

maize type I callus = details: transfer 2DG4+ AgNO3 + Cef, 2 weeks
Procedure: Embryos plated on callus initiation medium (2DG4 + 5 Chloramben) for 7 to 20 days give rise to callus. […] Resultant embryogenic callus are cut out of embryos and transferred to callus maintenance medium, 2DG4 + 0.5 mg/l (2,4-dichlorophenoxy) acetic acid (2,4-D) and used as samples for inoculation.
Type I callus obtained by the method described above can be maintained on the maintenance medium (2DG4 + 2,4 D 0.5 mg/l) and subcultured every 2 weeks.
as §1, §2, §3

tobacco leaf discs = details: silver nitrate during co-cultivation; LBA4404(GIGUP) 10^9 cells/ml

[Zn+2] [Zn^2+]
intensity of DNA ladders (genomic fragmentation) (cell line HE/89): markedly reduced genomic fragmentation

C[C@@H]1C[C@@H]([C@H](O)CC2CC(=O)NC(=O)C2)C(=O)[C@@H](C)C1 [cycloheximide]
intensity of DNA ladders (genomic fragmentation) (cell line HE/89): decreased

CO/N=C(\C(=O)N[C@@H]1C(=O)N2C(C(=O)O)=C(COC(C)=O)CS[C@H]12)c1csc(N)n1 [cefotaxime]
necrosis of maize tissue (HE/89): does not cause the maize tissue to become necrotic

[Ca+2] [Ca^2+]
intensity of DNA ladders (genomic fragmentation) (cell line HE/89): increased the intensity of DNA ladders

O=[N+]([O-])[O-].[Ag+] [AgNO3, silver nitrate]
embryos able to produce embryogenic calli (maize embryos; embryos plated on medium containing silver nitrate, inoculated with Agrobacterium): About 50%
Score (Callus initiation) (maize embryos; no pretreatment, co-inoculation 2DG4 + AgNO3, LBA4404 (GIGUP) 10^9 cells/ml): 55%
Score (Callus initiation) (maize embryos; no pretreatment, co-inoculation 2DG4, LBA4404 (GIGUP) 10^9 cells/ml): 30%
Score (Callus initiation) (maize embryos; pretreatment 2DG4 (6 days) + 1 day on 2DG4 + AgNO3, co-inoculation 2DG4 + AgNO3): 88%
Score (Callus initiation) (maize embryos; pretreatment 2DG4 (6 days), co-inoculation 2DG4 + AgNO3): 65%
Score (Callus initiation) (maize embryos; pretreatment 2DG4 + AgNO3 (1 day), co-inoculation 2DG4 + AgNO3): 43%
Score (Callus initiation) (maize embryos; pretreatment 2DG4 + AgNO3(4 days), co-inoculation 2DG4 + AgNO3): 27%
Score (Survival of tissues) (maize type I callus; 1/2 month old Type I callus, pretreatment 2DG4+AgNO3, co-inoculation 2DG4+AgNO3): 95%
Score (Survival of tissues) (maize type I callus; 1/2 month old Type I callus, pretreatment 2DG4, co-inoculation 2DG4+AgNO3): 75%
Score (Survival of tissues) (maize type I callus; 10 month-old Type I callus, pretreatment 2DG4+ AgNO3, co-inoculation 2DG4+ AgNO3): 66%
Score (Survival of tissues) (maize type I callus; 10 month-old Type I callus, pretreatment 2DG4, co-inoculation 2DG4+ AgNO3): 55%
GUS activity (tobacco leaf discs): No significant decrease
